Laboratory results reported in US12486241B2, “Cystine diamide analogs for cystinuria” (Rutgers, The State University of New Jersey, priority 2019, dated 2025).
Where a name gives a salt, the structure may show the parent alone.

Columns and labels:
[1] = in water; cited from earlier work
rats = details: cited from earlier work
cell culture = cell culture experiments; cited from earlier work
[2] = L-cystine crystallization inhibition assay (metastable supersaturated L-cystine solution; L-cystine concentration by fluorescence or cyanide-nitroprusside colorimetric assay); details: for Ratio (improvement in potency over the control): footnote names L-cystine dimethylester (CDME) as control, LH708 = 1.00; for EC50: test compound in L-cystine supersaturated solution (~3 mM), 25° C. for 72 h, read-out: EC50 (Aqueous Solubility of L-Cystine)
Procedure: Example 21 Preparation of the Metastable Supersaturated Solution of L-Cystine and the Cystallizaiton Inhibition Assay
For the preparation of L-cystine supersaturated solution 70 mg of L-cystine was dissolved in 100 mL of Millipore water (˜3 mM) under reflux at 120° C. for 30 min until the L-cystine was completely dissolved. The supersaturated solution was then allowed to cool slowly with stirring until the oil bath temperature reached 40° C. take about 70 min depending on the lab atmosphere. To determine the L-cystine concentration all test compounds were dissolved in water to form 10 mM stock solution. Five uL of each solution was added to 495 uL L-cystine supersaturated solution. The mixtures were allowed to stand at 25° C. for 72 h. At the end of incubation, the mixtures were centrifuged at 13,000 rpm for 5 min and the supernatants were diluted 10-fold for concentration measurement. To construct the standard curves L-Cystine (2.1 mg) was dissolved in 0.1 M Na2CO3 solution (9 mL) to form a 1 mM solution as a stock solution. Then, 50 uL L-cystine stock solution was diluted to 0.6 mM with 0.1 M Na2CO3 ([…]) solution and to 0.4, 0.2, 0.1, 0.05 mM solution using Millipore water 75, 200, 450 and 950 uL, respectively.
Fluorescence Assay for the Determination of L-Cystine Concentration
10 μL of each L-cystine solutions or test compound diluted mixtures, 100 μL of DTT solution (12.5 mM) in 0.1 M dibasic sodium phosphate solution (1:9), were mixed at r.t. for 10 min, before the addition of 10 μL of iodoacetic acid (100 mM) and continued incubation at r.t. for an additional 15 min. This was then followed by the addition of 20 μL of OPA (100 mM in methanol)/NBC (100 mM in methanol) (1:1). The derivatization was allowed to proceed for 3 min before 3×40 μL of the mixture were placed in a 384-well plate and read at Ex 355 nm/Em 460 nm. The standard curve was repeated for each set of experiments and used to calculate the concentration of L-cystine in each sample.
Cyanide-Nitroprusside Colorimetric Assay for the Determination of L-Cystine Concentration
3×40 μL of each L-cystine solutions or test compound diluted mixtures were placed in a 96-well plate (black, clear bottom). 80 μL of aqueous solution of potassium cyanide (30% w/v) in PBS (pH=7.4) (1:7) was added to each well then the plate was left to shake at 550 rpm for 25 min. 10 μL of aqueous solution of sodium nitroprusside (20% w/v) was added to each well using automated dispenser then the plate was centrifuged immediately at 1500 rpm for 20 sec. Then the UV absorbance was measured at 530 nm using Victor 3 V plate reader. The standard curve was repeated for each plate and used to calculate the concentration of L-cystine in each sample.

Row | Compound | EC50 [2] [nM] | Concentration at which crystallization of L-cystine is almost completely inhibited [1] | Dosage demonstrating adverse effects (rats) | Concentration causing loss of cell viability (cell culture) | Ratio (improvement in potency over the control) [2]
1 | COC(=O)[C@@H](N)CSSC[C@H](N)C(=O)OC [CDME, L-cystine dimethylester] | – | above 2 mg/L | approximately 500 mg/kg per day | approximately 1 mM | –
2 | N[C@@H](CSSC[C@H](N)C(=O)N1CCN(c2ccccc2)CC1)C(=O)N1CCN(c2ccccc2)CC1 [LH1732] | 500 ± 26.5 | – | – | – | 0.09
3 | CC1(C)CNCCN1C(=O)[C@@H](N)CSSC[C@H](N)C(=O)N1CCNCC1(C)C [LH1733, L-Cystine bis(2′,2′-dimethylpiperazide) tetrahydrochloride] | 108 ± 3.1 | – | – | – | 0.40
4 | CN(C)CCNC(=O)[C@@H](N)CSSC[C@H](N)C(=O)NCCN(C)C [LH1734, L-Cystine bis (N′,N′-dimethylethyleneamide) tetrahydrochloride] | 163 ± 10.8 | – | – | – | 0.26
5 | N[C@@H](CSSC[C@H](N)C(=O)NCCN1CCCC1)C(=O)NCCN1CCCC1 [LH1735, L-Cystine bis(N′-pyrrolidinoethyleneamide) tetrahydrochloride] | 116 ± 6.1 | – | – | – | 0.37
6 | N[C@@H](CSSC[C@H](N)C(=O)NCCN1CCCCC1)C(=O)NCCN1CCCCC1 [LH1737, L-Cystine bis(N′-piperidinoethyleneamide) tetrahydrochloride] | 143 ± 9.8 | – | – | – | 0.30
7 | CN(C)CCCNC(=O)[C@@H](N)CSSC[C@H](N)C(=O)NCCCN(C)C [LH1739, L-Cystine bis (N′,N′-dimethyl-1′,3′-diaminopropaneamide) tetrahydrochloride] | 114 ± 9.4 | – | – | – | 0.37
8 | N[C@@H](CSSC[C@H](N)C(=O)NCCCN1CCCC1)C(=O)NCCCN1CCCC1 [LH1740, L-Cystine bis(1′-pyrrolidine-3′-aminopropaneamide) tetrahydrochloride] | 163 ± 12.5 | – | – | – | 0.26
9 | N[C@@H](CSSC[C@H](N)C(=O)NCCCN1CCOCC1)C(=O)NCCCN1CCOCC1 [LH1741, L-Cystine bis (1′-morpholine-3′-aminopropaneamide) tetrahydrochloride] | 160 ± 10.6 | – | – | – | 0.27
10 | N[C@@H](CSSC[C@H](N)C(=O)N1CCCC12CCNCC2)C(=O)N1CCCC12CCNCC2 [LH1754, L-Cystine bis(1,8-Diazaspiro[4.5]decan-1-yl) tetrahydrochloride] | 120 ± 13 | – | – | – | 0.36

Continued, in another order:

Row | EC50 [2] [nM] | Compound | Concentration at which crystallization of L-cystine is almost completely inhibited [1] | Dosage demonstrating adverse effects (rats) | Concentration causing loss of cell viability (cell culture) | Ratio (improvement in potency over the control) [2]
11 | 42.8 ± 0.7 | CN1CCN(C(=O)[C@@H](N)CSSC[C@H](N)C(=O)N2CCN(C)CC2)CC1 [LH708, reference compound] | – | – | – | 1.00
12 | 52.6 ± 0.8 | N[C@@H](CSSC[C@H](N)C(=O)N1CCNCC1)C(=O)N1CCNCC1 [LH1726, L-Cystine bispiperazide tetrahydrochloride] | – | – | – | 0.81
13 | 32 ± 2.5 | CC(C)(C)N1CCN(C(=O)[C@@H](N)CSSC[C@H](N)C(=O)N2CCN(C(C)(C)C)CC2)CC1 [LH1729, L-Cystine bis(N′-tert-butylpiperazide) tetrahydrochloride] | – | – | – | 1.34
14 | 68.8 ± 4.1 | N[C@@H](CSSC[C@H](N)C(=O)N1CCN(C2CC2)CC1)C(=O)N1CCN(C2CC2)CC1 [LH1730, L-Cystine bis(N′-cyclopropylpiperazide) tetrahydrochloride] | – | – | – | 0.62
15 | 39.5 ± 1.3 | N[C@@H](CSSC[C@H](N)C(=O)N1CCN(C2CCCC2)CC1)C(=O)N1CCN(C2CCCC2)CC1 [LH1731, L-Cystine bis(N′-cyclopentylpiperazide) tetrahydrochloride] | – | – | – | 1.08
16 | 79.7 ± 7.7 | N[C@@H](CSSC[C@H](N)C(=O)NCCN1CCOCC1)C(=O)NCCN1CCOCC1 [LH1738, L-Cystine bis(N′-morpholinoethyleneamide) tetrahydrochloride] | – | – | – | 0.54
17 | 51.2 ± 3.7 | CN(C)C1CCN(C(=O)[C@@H](N)CSSC[C@H](N)C(=O)N2CCC(N(C)C)CC2)CC1 [LH1751, L-Cystine bis(4′-(dimethylamino)-piperidineamide) tetrahydrochloride] | – | – | – | 0.84
18 | 36.5 ± 1.6 | N[C@@H](CSSC[C@H](N)C(=O)N1CCC(N2CCCC2)CC1)C(=O)N1CCC(N2CCCC2)CC1 [LH1752, L-Cystine bis(4′-(1″-Pyrrolidinyl)piperidine) tetrahydrochloride] | – | – | – | 1.17
19 | 25.1 ± 2.4 | N[C@@H](CSSC[C@H](N)C(=O)N1CCC2(CCCN2)CC1)C(=O)N1CCC2(CCCN2)CC1 [LH1753, L-Cystine bis(1,8-Diazaspiro[4.5]decan-8-yl) tetrahydrochloride] | – | – | – | 1.70
